The values that follow are results of earlier work, collected in patent EP2583674A2, “ACECLOFENAC SLOW-RELEASE PREPARATION PROVIDING AN OPTIMUM PHARMACOLOGICAL CLINICAL EFFECT WHEN ADMINISTERED ONCE A DAY” (Korea United Pharm, Inc., priority 2010, dated 2011).

[1] abbreviates: aceclofenac and the metabolites thereof.

On to `O=C(O)COC(=O)Cc1ccccc1Nc1c(Cl)cccc1Cl` [aceclofenac, 2-[(2,6-dichlorophenyl)amino]-phenylacetoxyacetic acid], for which, under setting [1], the excreted through stool entry is “approximately 20%” and the excreted through urine entry is recorded as “approximately 70%”. The “excretion rate (half-life)” value (in vivo) was “approximately 4 hours”. Moreover, where the note is “orally administered”, the duration result is “approximately 12 hours” and the onset time was at most 30 min.
